The values that follow come from PubChem BioAssay (NCI).

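A five-concentration, 48-hour dose response in 96-well plates underlies each endpoint, interpolated linearly between surrounding concentrations. TGI: total growth inhibition.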 Where a SMILES comes first, the peptide text is derived from it. The star is where a group is joined. Cbz = O=C(OCc1ccccc1)*; OBn = c1ccc(CO*)cc1

One assay relates to SF-539 CNS. Briefly: inhibition of tumour cell growth, NCI panel, 48 h.
As for `COC(=O)CNC(=O)C(C)NC(=O)C(CC(=O)OCc1ccccc1)NC(=O)OCc1ccccc1` (stereo not drawn) (Cbz-Asp(OBn)-Ala-Gly-OMe; configuration not given here), the TGI was > 100 µM.

In the case of `CC(C)=CCOc1cc(NC(=S)c2ccoc2C)ccc1Cl`, the TGI was > 100 µM.

`C[C@H]1[C@H](C)N(Cc2ccccc2)P(=O)(C(O)/C=C/c2ccccc2)N1Cc1ccccc1` (some centres not stated) came in with a TGI of 10.2 µM.

Consider `O=C1c2cc3c(cc2CC12Cc1cc4c(cc1C2=O)CCCC4)CCCC3`, for which the TGI was > 100 µM.

In turn, `O=C1CSC2(CC(/C=C/c3ccccc3O)=NN2c2cccc(S(=O)(=O)O)c2)N1c1nc2ccccc2s1` (configuration not stated) yielded a TGI of 48.8 µM.

With `CC1(C)C(=O)N(O)C(C)(C)N1O`, the TGI was > 10 µM.

Turning to `CCOC(=O)/C(O)=C(/C=N\C(=S)Nc1ccccc1Cl)C(=O)OCC`, the TGI was > 100 µM.

As to `O=C(NC(C(F)(F)F)(C(F)(F)F)P(=O)(c1ccccc1)c1ccccc1)C(C(F)(F)F)C(F)(F)F`, the TGI turned out to be 52.1 µM.

In the case of `O=C1CC(=O)NC(=NN2C(=O)CSC2c2ccc(Cl)c(Cl)c2)N1` (configuration not stated), the TGI is > 100 µM.

For `O=C1NC(N2CCOCC2)=N/C1=C\c1cccs1`, the TGI was > 100 µM.

Take `CSc1nc2ccccc2c(=O)n1/N=C1\C(=O)N(CN2CCCCC2)c2ccc(Cl)cc21`: the TGI was > 100 µM.

The next assay relates to OVCAR-5 ovarian. Briefly: inhibition of tumour cell growth, NCI panel, 48 h.
For the compound `COC(=O)CNC(=O)C(C)NC(=O)C(CC(=O)OCc1ccccc1)NC(=O)OCc1ccccc1` (stereo not drawn) (Cbz-Asp(OBn)-Ala-Gly-OMe; configuration not given here), the TGI was > 100 µM.

As to `CC(C)=CCOc1cc(NC(=S)c2ccoc2C)ccc1Cl`, the TGI was > 100 µM.

`C[C@H]1[C@H](C)N(Cc2ccccc2)P(=O)(C(O)/C=C/c2ccccc2)N1Cc1ccccc1` (some centres not stated) had a TGI of 18.8 µM.

Take `O=C1c2cc3c(cc2CC12Cc1cc4c(cc1C2=O)CCCC4)CCCC3`: the TGI was > 100 µM.

Regarding `O=C1CSC2(CC(/C=C/c3ccccc3O)=NN2c2cccc(S(=O)(=O)O)c2)N1c1nc2ccccc2s1` (configuration not stated), the TGI is 64.4 µM.

With `CC1(C)C(=O)N(O)C(C)(C)N1O`, the TGI is > 10 µM.

Regarding `CCOC(=O)/C(O)=C(/C=N\C(=S)Nc1ccccc1Cl)C(=O)OCC`, the TGI was > 100 µM.

With `O=C(NC(C(F)(F)F)(C(F)(F)F)P(=O)(c1ccccc1)c1ccccc1)C(C(F)(F)F)C(F)(F)F`, the TGI is > 100 µM.

Take `O=C1CC(=O)NC(=NN2C(=O)CSC2c2ccc(Cl)c(Cl)c2)N1` (configuration not stated): the TGI is > 100 µM.

As to `O=C1NC(N2CCOCC2)=N/C1=C\c1cccs1`, the TGI was > 100 µM.

For `CSc1nc2ccccc2c(=O)n1/N=C1\C(=O)N(CN2CCCCC2)c2ccc(Cl)cc21`, the TGI is > 100 µM.

The next assay deals with OVCAR-8 ovarian. Briefly: inhibition of tumour cell growth, NCI panel, 48 h.
Take `COC(=O)CNC(=O)C(C)NC(=O)C(CC(=O)OCc1ccccc1)NC(=O)OCc1ccccc1` (stereo not drawn) (Cbz-Asp(OBn)-Ala-Gly-OMe; configuration not given here): the TGI was > 100 µM.

Take `CC(C)=CCOc1cc(NC(=S)c2ccoc2C)ccc1Cl`: the TGI was > 100 µM.

With `C[C@H]1[C@H](C)N(Cc2ccccc2)P(=O)(C(O)/C=C/c2ccccc2)N1Cc1ccccc1` (some centres not stated), the TGI was > 25 µM.

As to `O=C1c2cc3c(cc2CC12Cc1cc4c(cc1C2=O)CCCC4)CCCC3`, the TGI was > 100 µM.

As to `O=C1CSC2(CC(/C=C/c3ccccc3O)=NN2c2cccc(S(=O)(=O)O)c2)N1c1nc2ccccc2s1` (configuration not stated), the TGI turned out to be 54.1 µM.

Take `CC1(C)C(=O)N(O)C(C)(C)N1O`: the TGI is > 10 µM.

With `CCOC(=O)/C(O)=C(/C=N\C(=S)Nc1ccccc1Cl)C(=O)OCC`, the TGI was > 100 µM.

As for `O=C(NC(C(F)(F)F)(C(F)(F)F)P(=O)(c1ccccc1)c1ccccc1)C(C(F)(F)F)C(F)(F)F`, the TGI is 72.8 µM.

As to `O=C1CC(=O)NC(=NN2C(=O)CSC2c2ccc(Cl)c(Cl)c2)N1` (configuration not stated), the TGI is > 100 µM.

`O=C1NC(N2CCOCC2)=N/C1=C\c1cccs1`: the TGI is > 100 µM.

As to `CSc1nc2ccccc2c(=O)n1/N=C1\C(=O)N(CN2CCCCC2)c2ccc(Cl)cc21`, the TGI was > 100 µM.

A further assay has as its system SF-295 CNS. Briefly: inhibition of tumour cell growth, NCI panel, 48 h.
Regarding `COC(=O)CNC(=O)C(C)NC(=O)C(CC(=O)OCc1ccccc1)NC(=O)OCc1ccccc1` (stereo not drawn) (Cbz-Asp(OBn)-Ala-Gly-OMe; configuration not given here), the TGI was > 100 µM.

As for `CC(C)=CCOc1cc(NC(=S)c2ccoc2C)ccc1Cl`, the TGI is > 100 µM.

In the case of `C[C@H]1[C@H](C)N(Cc2ccccc2)P(=O)(C(O)/C=C/c2ccccc2)N1Cc1ccccc1` (some centres not stated), the TGI was 20.1 µM.

`O=C1c2cc3c(cc2CC12Cc1cc4c(cc1C2=O)CCCC4)CCCC3` displayed a TGI of 69 µM.

For `CC1(C)C(=O)N(O)C(C)(C)N1O`, the TGI is > 10 µM.

As for `CCOC(=O)/C(O)=C(/C=N\C(=S)Nc1ccccc1Cl)C(=O)OCC`, the TGI is > 100 µM.

With `O=C(NC(C(F)(F)F)(C(F)(F)F)P(=O)(c1ccccc1)c1ccccc1)C(C(F)(F)F)C(F)(F)F`, the TGI was > 100 µM.

As to `O=C1CC(=O)NC(=NN2C(=O)CSC2c2ccc(Cl)c(Cl)c2)N1` (configuration not stated), the TGI is > 100 µM.

For `O=C1NC(N2CCOCC2)=N/C1=C\c1cccs1`, the TGI was > 100 µM.

For the compound `CSc1nc2ccccc2c(=O)n1/N=C1\C(=O)N(CN2CCCCC2)c2ccc(Cl)cc21`, the TGI was > 100 µM.

The next assay concerns UO-31 renal. Briefly: inhibition of tumour cell growth, NCI panel, 48 h.
On to `COC(=O)CNC(=O)C(C)NC(=O)C(CC(=O)OCc1ccccc1)NC(=O)OCc1ccccc1` (stereo not drawn) (Cbz-Asp(OBn)-Ala-Gly-OMe; configuration not given here), for which the TGI stood at 62.8 µM.

`CC(C)=CCOc1cc(NC(=S)c2ccoc2C)ccc1Cl`: the TGI was > 100 µM.

The compound `C[C@H]1[C@H](C)N(Cc2ccccc2)P(=O)(C(O)/C=C/c2ccccc2)N1Cc1ccccc1` (some centres not stated) came in with a TGI of 10.7 µM.

Consider `O=C1c2cc3c(cc2CC12Cc1cc4c(cc1C2=O)CCCC4)CCCC3`, for which the TGI is > 100 µM.

`O=C1CSC2(CC(/C=C/c3ccccc3O)=NN2c2cccc(S(=O)(=O)O)c2)N1c1nc2ccccc2s1` (configuration not stated) had a TGI of 98.9 µM.

Regarding `CCOC(=O)/C(O)=C(/C=N\C(=S)Nc1ccccc1Cl)C(=O)OCC`, the TGI is > 100 µM.

In the case of `O=C1CC(=O)NC(=NN2C(=O)CSC2c2ccc(Cl)c(Cl)c2)N1` (configuration not stated), the TGI is > 100 µM.

Consider `O=C1NC(N2CCOCC2)=N/C1=C\c1cccs1`, for which the TGI was > 100 µM.

`CSc1nc2ccccc2c(=O)n1/N=C1\C(=O)N(CN2CCCCC2)c2ccc(Cl)cc21`: the TGI is > 100 µM.
